{
  "source": "patent US20170348231A1",
  "about": "“COMPOSITION AND METHOD FOR BUCCAL ADMINISTRATION OF GnRH AGONISTS” (NHTherapeutics INC, priority 2016, published 2017)",
  "key": {"male beagle dogs": {"test_system": "male beagle dogs", "test": "Oromucosal (buccal) spray in male beagle dogs, testosterone response", "format": "in vivo", "conditions": "0.5 mg oromucosal spray", "description": "The GnRH analogue leuprorelin acetate (leuprolide acetate) which is available as an injectable, was reformulated as described in Example 3. This spray was administered to male beagle dogs at a dose of 0.5 mg suspended in 140 μl and dispensed in a single spray to the inner cheek of male beagle dogs (studies 1 and 2). In addition, formulation 2 was sprayed to the mucosae at the back of the throat in a separate study to determine if this would alter the absorption characteristics (study 3). The two formulations were administered with a one week washout period. Drug was dispensed in a single spray with a volume of 140 μl (studies 1 and 2) or three consecutive sprays (study 3). The aim of the study was to determine if leuprolide could be delivered as an oralmucosal spray and to determine the minimum exposure required to increase levels of testosterone.\nThe blood levels for leuprolide were monitored 15 minutes before the start of the study and at time “0” (immediately after drug administration), then at 15, 30 minutes and at 1, 2, 3 and 5 hours (postdosing; studies 1 and 2). In addition, for study 3, two additional time points were included at 5 and 10 min post dosing. […]\nThe study was conducted by the University Health Network in Toronto and specifically at the Toronto Western Hospital. Serum samples were analysed at Inventiv Health in Quebec City."}, "[1]": {"conditions": "intranasal; cited from earlier work"}, "[2]": {"test_system": "patient suffering from hypogonadotropic hypogonadism", "conditions": "intranasal, daily administration of a low dose; cited from earlier work"}, "[3]": {"test_system": "normally menstruating females", "conditions": "25 μg LH-RH each, double stimulation on three consecutive days, 12 females; cited from earlier work"}},
  "data": [
    {"molecule": "CCNC(=O)[C@@H]1CCCN1C(=O)[C@H](CCCNC(=N)N)NC(=O)[C@H](CC(C)C)NC(=O)[C@@H](CC(C)C)NC(=O)[C@H](Cc1ccc(O)cc1)NC(=O)[C@H](CO)NC(=O)[C@H](Cc1c[nH]c2ccccc12)NC(=O)[C@H](Cc1c[nH]cn1)NC(=O)[C@@H]1CCC(=O)N1", "note": "[Leuprolide acetate, leuprolide acetate]", "values": [
      {"measurement": "exposure levels at which the testosterone increase occurred", "setting": "male beagle dogs", "result": "at least 30 pg/ml"},
      {"measurement": "peak testosterone increase compared to baseline", "setting": "male beagle dogs; FIGS. 1a, b", "result": "~200", "unit": "%"}
    ]},
    {"molecule": "CCNC(=O)[C@@H]1CCCN1C(=O)[C@H](CCCNC(=N)N)NC(=O)[C@H](CC(C)C)NC(=O)[C@@H](COC(C)(C)C)NC(=O)[C@H](Cc1ccc(O)cc1)NC(=O)[C@H](CO)NC(=O)[C@H](Cc1c[nH]c2ccccc12)NC(=O)[C@H](Cc1cnc[nH]1)NC(=O)[C@@H]1CCC(=O)N1", "note": "[buserelin]", "values": [
      {"measurement": "bioavailability", "setting": "[1]", "result": 3, "unit": "%"},
      {"measurement": "testosterone", "setting": "[2]", "result": "chronic and sustained increase in testosterone"}
    ]},
    {"molecule": "luteinizing hormone-releasing hormone (QHWSYGLRPG; Gonadoliberin-1; UniProt P01148 24-33, looked up) [LH-RH, Native or physiological GnRH, hormone secreted by the hypothalamus]", "values": [
      {"measurement": "serum LH levels", "setting": "[3]", "result": "Increases in serum LH levels were found after each of the two stimulations"}
    ]}
  ]
}
